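Interpolation was linear, between the two tested concentrations surrounding the appropriate level; five concentrations were tested over 48 hours in 96-well plates. GI50 marks 50% less growth. Definition used: TGI = concentration required for complete inhibition of growth.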
Experiments:
Test in all cases: growth of human tumour cells (NCI), 48 h
[1] = system: HCT-116 colon
[2] = system: SN12C renal
[3] = system: NCI-H23 lung
[4] = system: 786-0 renal
[5] = system: OVCAR-4 ovarian
[6] = system: COLO 205 colon
[7] = system: CAKI-1 renal
[8] = system: EKVX NSCLC
[9] = system: NCI/ADR-RES ovarian
[10] = system: DU-145 prostate

| SMILES | TGI [1] [µM] | TGI [2] [µM] | TGI [3] [µM] | TGI [4] [µM] | TGI [5] [µM] | TGI [6] [µM] | TGI [7] [µM] | TGI [8] [µM] | GI50 [1] [µM] | GI50 [2] [µM] | GI50 [3] [µM] | GI50 [4] [µM] | GI50 [5] [µM] | GI50 [9] [µM] | TGI [9] [µM] | GI50 [6] [µM] | GI50 [10] [µM] | TGI [10] [µM] | GI50 [7] [µM] |
| --- | --- | --- | --- | --- | --- | --- | --- | --- | --- | --- | --- | --- | --- | --- | --- | --- | --- | --- | --- |
| NC1=NN(c2ccccc2)C(=O)C1C(=O)C(=O)Nc1nccs1 (configuration not stated) | > 100 | > 100 | > 100 | > 100 | > 100 | > 100 | > 100 | > 100 | – | – | – | – | – | – | – | – | – | – | – |
| C/C=C(\CCOS(=O)(=O)c1ccc(C)cc1)[Si](C)(C)C | > 100 | > 100 | > 100 | > 100 | – | > 100 | – | > 100 | – | – | – | – | – | – | – | – | – | – | – |
| CC1=C(O)/C(=C/C(C)CCC/C(C)=C/C=C/C(C)CCCc2ccoc2)OC1=O (configuration not stated) | – | > 100 | 59.3 | 84.9 | 85.3 | > 100 | > 100 | 67.1 | – | – | – | – | – | – | – | – | – | – | – |
| N#CC1(C#N)C2C=CC(c3coc4cccc2c34)C1(C#N)C#N (configuration not stated) | 6.08 | 23.2 | 36.9 | 34.8 | 47.9 | 4.4 | – | 33 | – | – | – | – | – | – | – | – | – | – | – |
| O=C(N/N=C1\C(=O)N(c2nccs2)C(=O)C(=O)C1c1nc2ccccc2s1)c1ccccc1O (configuration not stated) | > 100 | > 100 | > 100 | > 100 | > 100 | > 100 | > 100 | > 100 | – | – | – | – | – | – | – | – | – | – | – |
| CCOC(=O)C(CC/C=C\c1ccccc1)N1CCC[C@H]1C(=O)OC (some centres not stated) | > 100 | > 100 | > 100 | > 100 | > 100 | > 100 | > 100 | > 100 | – | – | – | – | – | – | – | – | – | – | – |
| OCCNc1nc(Nc2ccc(Cl)c(Cl)c2)nc2ccccc12 | 14.6 | 20.7 | 25.1 | 11 | 18.4 | 3.07 | 18.2 | – | 3.52 | 5.37 | 10.3 | 3.04 | 4.64 | 4.91 | 20 | 1.6 | 11 | 22.9 | 4.66 |
| C/C(O)=C(\C#N)C(=O)Nc1ccc(C(F)(F)F)cc1 | > 100 | > 100 | > 100 | > 100 | > 100 | > 100 | > 100 | – | 7.5 | 29.1 | 73.7 | 34.3 | 91 | 21.4 | > 100 | 47.3 | 46.7 | > 100 | 5.46 |
| CCOC(=O)c1cnc2sc3ccc4ccccc4c3n2c1=O | > 100 | > 100 | > 100 | > 100 | > 100 | > 100 | 99.4 | > 100 | – | – | – | – | – | – | – | – | – | – | – |
| COc1cc(C2=N/C(=C/c3cccs3)C(=O)O2)cc(OC)c1OC | > 100 | > 100 | > 100 | > 100 | > 100 | > 100 | > 100 | > 100 | – | – | – | – | – | – | – | – | – | > 100 | – |

Source: PubChem BioAssay (NCI)
